In patent US20020082254A1, “Compounds for treating disorders where a decreased level of plasma FFA is desired” (priority 2000, published 2002) one finds IC50 data, which are given here for three molecules.

The test concerns the target T1, Hormone-sensitive lipase (HSL) (Homo sapiens, UniProt Q05469).
T1 sequence (Q05469 1-1076): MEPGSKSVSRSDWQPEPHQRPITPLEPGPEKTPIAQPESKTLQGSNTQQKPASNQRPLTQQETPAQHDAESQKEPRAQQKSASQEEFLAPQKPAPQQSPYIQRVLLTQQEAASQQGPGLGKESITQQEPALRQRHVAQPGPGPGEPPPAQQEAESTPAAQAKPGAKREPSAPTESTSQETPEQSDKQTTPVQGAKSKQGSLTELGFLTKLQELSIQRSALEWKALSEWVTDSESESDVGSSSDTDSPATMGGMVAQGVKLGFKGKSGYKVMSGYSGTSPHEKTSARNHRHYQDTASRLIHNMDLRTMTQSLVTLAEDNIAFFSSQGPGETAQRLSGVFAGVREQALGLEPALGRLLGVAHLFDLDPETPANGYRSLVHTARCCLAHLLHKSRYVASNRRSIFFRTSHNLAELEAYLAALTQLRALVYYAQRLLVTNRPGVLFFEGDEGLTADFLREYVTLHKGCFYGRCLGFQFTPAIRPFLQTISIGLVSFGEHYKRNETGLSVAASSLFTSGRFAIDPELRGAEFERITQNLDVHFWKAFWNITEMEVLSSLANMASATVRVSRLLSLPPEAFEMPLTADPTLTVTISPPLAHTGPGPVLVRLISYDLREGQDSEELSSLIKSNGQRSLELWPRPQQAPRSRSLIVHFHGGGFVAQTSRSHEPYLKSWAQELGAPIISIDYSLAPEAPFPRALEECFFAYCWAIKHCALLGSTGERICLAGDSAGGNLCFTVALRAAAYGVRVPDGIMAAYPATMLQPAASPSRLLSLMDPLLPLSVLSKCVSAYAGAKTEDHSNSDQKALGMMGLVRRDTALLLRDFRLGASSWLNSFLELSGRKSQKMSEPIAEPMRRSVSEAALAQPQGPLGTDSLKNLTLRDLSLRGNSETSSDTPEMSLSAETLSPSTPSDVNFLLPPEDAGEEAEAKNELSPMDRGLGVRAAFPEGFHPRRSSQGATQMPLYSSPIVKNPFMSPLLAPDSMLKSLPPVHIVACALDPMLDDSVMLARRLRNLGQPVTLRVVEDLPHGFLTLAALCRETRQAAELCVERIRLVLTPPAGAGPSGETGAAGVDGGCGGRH
Briefly: Hormone-sensitive lipase (HSL) inhibition assay, 3H-labeled triolein or MOME substrate. Format: biochemical. The following applies: read-out: HSL inhibition (IC50). Summed up:
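HSL enzyme (0.12 mg/ml stock) preincubated with inhibitor in PED-BSA, then given sonicated PC:PI-emulsified ³H-triolein or ³H-MOME in 0.1 M potassium phosphate pH 7 with BSA. 30 min at 37 °C; released radiolabelled fatty acid extracted in methanol/chloroform/heptane at pH 10.5 and scintillation counted.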

On to `CC1Cc2ccccc2CN1NC(=O)Oc1ccc(Cl)cc1` (stereo not drawn) [Example 23, (3-Methyl-3,4-dihydro-1H-isoquinolin-2-yl)-carbamic Acid 4-chloro-phenyl Ester], for which the IC50 – broadly, the midpoint of a concentration-inhibition curve – was found to be 40 nM.

For `CC(C)(C)OC(=O)Nc1ccc(OC(=O)NN2CCc3ccccc3C2)cc1` [Example 17, (3,4-Dihydro-1H-isoquinolin-2-yl)-carbamic Acid 4-tert-butoxycarbonylamino-phenyl Ester], the IC50 stood at 3 nM.

In the case of `O=C(NN1CCc2ccccc2C1)Oc1ccc(Cl)cc1` [Example 6, (3,4-Dihydro-1H-isoquinolin-2-yl)-carbamic acid 4-chloro-phenyl Ester], the IC50 worked out at 19 nM.
